Results on 2 compounds are retold here after patent US4529602A, “Method for treatment or prophylaxis of gastro-intestinal disease” (priority 1981, dated 1985).

In series [1] the test system is gastric mucous membrane. The experiment in a line: Protective effect on gastric mucous membrane (excised stomach in artificial gastric juice). Set-up: species or system Male Sprague-Dawley rats. To be noted: 37° C., 60 min; for Amount of tyrosine: control 2.42 ± 0.15; for Amount of tyrosine / Inhibition (%) of digestion of mucous membrane: hydrate. How it is done:
Protective effect of a test compound on gastric mucous membrane was examined by the method of Diago et al. (Yakugaku Zasshi, 101, 452-457(1981)). Male Sprague-Dawley rats (6-7 weeks old; one group: 5 rats) were fasted for 20 hours before the experiments. Water was given ad libitum and coprophagy was prevented by using cages with wide-mesh floors. The stomach was excised, opened along the greater curvature, rinsed in physiological saline solution, and the rumen was discarded. The stomach was incubated in 10 ml of an artificial gastric juice (100 mM HCl, 0.3% pepsin, 0.2% NaCl) containing a test compound, at 37° C. for 60 minutes. After the incubation, 2 ml of 7% trichloroacetic acid were added to 0.5 ml of medium, and the mixture was centrifuged. The amount of tyrosine in the supernatant was measured by using Folin-Ciocelteu reagent (J. gen. Physiol., 16, 59-63(1932)), and expressed as mg tyrosine/g tissue. The protective effect of the test compound on gastric mucous membrane was estimated in terms of "the inhibition of digestion of mucous membrane" which was calculated by the following formula: [formula] (Results)

Series [2] concerns urinary electrolytes. The experiment in a line: Effect on urine volume and urinary electrolytes (Experiment 7). Type of series: in vivo, Male SD-strain rats. To be noted: for Urine volume: 5 h, 2 rats per cage, control 12.3; for Na/K: 5 h urine, control 5.8. The method, then: Male SD-strain rats (6 to 7 weeks old) were starved overnight, and a physiological saline solution (3 ml/100 g of body weight) was orally administered to the rats. One hour later, a solution or suspension of a test compound in a 0.25% CMC-physiological saline solution was administered orally to the rats in an amount of 3 ml per 100 g of body weight (Dose: 50 and 500 mg/kg). Immediately after administration of the test compound, the rats were placed into metabolic cages (2 rats per cage) and deprived of water and food for 5 hours. The urine samples which were excreted during a 5 hour period were collected. Sodium and potassium in the urine were estimated by a flame photometer (Hitachi Model-205).

Series [3] can be described thus: in vivo. To be noted: mouse, oral, male ddY-strain mice, 7 days. The method, then: After male ddY-strain mice (4 weeks old) were starved for 4 hours, a suspension of a test compound in distilled water containing a small amount of Tween 80 was administered orally to the mice in an amount of 0.1 ml per 10 g of body weight. After administration of the test compound, the mice were allowed free access to water and food. […] As a result, the LD50 of sulfodehydroabietic acid calcium salt was more than 2,000 mg/kg.

Series [4] deals with pepsin secretion. The experiment in a line: Preventive effect on pepsin secretion in pylorus-ligated rats. The class given is in vivo, Male SD-strain rats. Particulars: 100 mg/kg oral, 5 h after administration, hydrate. How it is done: (§1) Preventive effect on acid and pepsin secretions
(§2) Male SD-strain rats (6 to 7 weeks old) were starved for 48 hours, and then the pylori were ligated. Immediately after ligation, a solution or suspension of a test compound in distilled water was administered orally into the stomachs in an amount of 0.2 ml per 100 g of body weight (Dose: 100 mg/kg). Five hours after said administration of the test compound, the rats were sacrificed and the stomachs were removed. The gastric contents were centrifuged at 2,500 rpm for 10 minutes and the gastric juice was collected as the supernatant. The concentration of pepsin in the gastric juice was determined by Anson's method (c.f., J. Gen. Physiol., 22, pp. 77-89 (1938)) using hemoglobin as the substrate, and the preventive effect of the test compound on the pepsin secretion was estimated in terms of "decrease in pepsin concentration" according to the following formula: [formula]

Series [5] deals with gastric acid secretion. The experiment in a line: Preventive effect on gastric acid secretion in pylorus-ligated rats. To be noted: 100 mg/kg oral, 5 h after administration, hydrate. The class given is in vivo, Male SD-strain rats. The method, then:
as §1, §2
On the other hand, the concentration of free acid in the gastric juice was determined by titrating said gastric juice to pH 7.0 with 0.1N NaOH, and the preventive effect of the test compound on the gastric acid secretion was estimated in terms of "the decrease in acidity of gastric juice" according to the following formula: [formula] (Results)

In series [6] the test system is Shay rat ulcers. The experiment in a line: Effect on Shay rat ulcers (pylorus-ligated). To be noted: 17 h. The class given is in vivo, Male SD-strain rats. The method, then: Male SD-strain rats (6 to 7 weeks old) were starved for 48 hours and then the pylori were ligated. Immediately after ligation, a solution or suspension of a test compound in distilled water was administered orally into the stomachs in an amount of 0.2 ml per 100 g of body weight (Dose: 200 or 300 mg/kg). Seventeen hours after the administration of the test compound, the degree of ulceration in forestomach was examined according to the method of Takagi et al (Chem. Pharm. Bull., 11(10), pp. 1282-1290 (1963)) with a modified scoring system. Depending on the diameter of each lesions, the ulcers were classified into the following 4 grades. Ulcer index was calculated by the sum of the number of ulcers in each degree multiplied by respective ulcer score. Further, based on the ulcer index determined above, the preventive effect of the test compound on Shay rat ulcer was calculated by the following formula: [formula] (Results)

Series [7] deals with rats. The experiment in a line: Acute oral toxicity in rats (Experiment 10). Type of series: in vivo. Particulars: male SD-strain rats, 7 days, hydrate, 10080 min. The method, then:
(§3) After male SD-strain rats (6-7 weeks old) were starved for 20 hours, a solution or suspension of a test compound in distilled water was administered orally to the rats in an amount of one ml per 100 g of body weight. After administration of the test compound, the rats were allowed free access to water and food.

Series [8] relates to gastric mucus secretion. The experiment in a line: Effect on gastric mucus secretion (alcian blue binding). Type of series: in vivo, Male Sprague-Dawley rats. To be noted: 100 mg/kg oral, 1 h, hydrate; for Alcian blue binding: control (water) 198.5 ± 6.4. The method, then: Stimulating effect of a test compound on gastric mucus secretion was examined by the method of Corne et al. (J. Physiol., 242, pp. 116-117(1974); J. Pharm. Pharmacol., 33, pp. 348-352(1981)). Male Sprague-Dawley rats (6-7 weeks old; one group: 6 rats) were fasted for 20 hours before the experiments. Water was given ad libitum and coprophagy was prevented by using cages with wide-mesh floors. A test compound dissolved or suspended in distilled water was administered orally to the rats at a dose of 100 mg/kg. One hour after the administration of the test compound, the stomachs were dissected, opened along the greater curvature, rinsed in ice-cold 0.25M sucrose, and the rumen was discarded. Then, the stomachs were incubated in 10 ml of a 0.15M sucrose-0.05M sodium acetate solution (pH 5.8) containing alcian blue (1 mg/ml), at room temperature for 1.5 hours. Finally, the stomachs were placed in 15 ml of a 0.5M magnesium chloride solution for 2 hours with occasional shaking and then removed, and the magnesium chloride solution was shaken briefly with 10 ml of diethyl ether. The optical density of the aqueous layer was read at 605 nm, and the degree of alcian blue binding was expressed as μg alcian blue/g of tissue. The stimulating effect of the test compound on gastric mucus secretion was estimated in terms of "the increase in alcian blue binding" which was calculated by the following formula: [formula] (Results)

For series [9], the system named is urinary electrolytes. The experiment in a line: Effect on urinary electrolytes (Experiment 9). The class given is in vivo, Male SD-strain rats. Particulars: for Urine volume: 4 h, control 6.5 ± 0.3; for Na/K ratio: 4 h urine, control 5.8 ± 0.6. The method, then: Male SD-strain rats (6 to 7 weeks old, one group: 6 rats) were starved overnight, and a physiological saline solution (3 ml/100 g of body weight) was orally administered to the rats. One hour later, a suspension of a test compound in a physiological saline solution was administered orally to the rats in an amount of 3 ml per 100 g of body weight (Dose: 500 or 1,000 mg/kg). Immediately after administration of the test compound, the rats were placed into metabolic cages (one rat per cage) and deprived of water and food for 4 hours. The urine samples which were excreted during a 4 hour period were collected. Sodium and potassium in the urine were estimated by a flame photometer (Hitachi Model-205).

Series [10] deals with aspirin-induced ulcers. The experiment in a line: Effect on aspirin-induced ulcers. Type of series: in vivo, Male Donryu-strain rats. Particulars: p.o. 0.8 m mol./kg (400 mg/kg); aspirin 200 mg/kg. The method, then: Male Donryu-strain rats (8 to 9 weeks old) were starved overnight, and a solution or suspension of a test compound in distilled water was administered orally into the stomachs in an amount of one ml per 100 g of body weight. Half an hour later, a suspension of aspirin in 0.25% CMC solution was administered orally to the rats in an amount of 0.5 ml per 100 g of body weight (Dose: 200 mg/kg). Four hours after the administration of aspirin, the rats were sacrificed and the stomachs were removed and inflated by injecting 10 ml of 1% formalin solution to fix the inner layers of the gastric walls. The stomach was then incised along the greater curvature and the lengths of the lesions were measured and summated to give ulcer index (in mm) for each animal. The preventive effect of the test compound on aspirin-induced ulcers were calculated by the following formula: [formula] (Results)

Series [11] is described as follows: Acute oral toxicity in rats (Experiment 10). The class given is in vivo. Particulars: rat, in vivo, male SD-strain rats, 7 days. The method, then: as §3
[12] abbreviates: 1 mg/ml in artificial gastric juice.
Setting [13] is: 4 mg/ml in artificial gastric juice.

Counter-ions that a name gives are not always drawn.

As for `CC(C)c1cc2c(cc1S(=O)(=O)O)[C@@]1(C)CCC[C@@](C)(C(=O)O)[C@@H]1CC2` [Sulfodehydroabietic acid calcium salt, sulfodehydroabietic acid calcium salt 2.5 hydrate], in [1] (setting [12]), the Amount of tyrosine was found to be 1.72 ± 0.08 mg/g tissue and the “Inhibition (%) of digestion of mucous membrane” value is 29%. In [1] (setting [13]), the Amount of tyrosine is given as 0.86 ± 0.04 mg/g tissue and the “Inhibition (%) of digestion of mucous membrane” value was 64%. In series [2] (50 mg/kg oral), this compound came in with a Urine volume of 11.5 mL and a Na/K of 5.2. In series [2] (500 mg/kg oral), this compound registered a Urine volume of 11.3 mL and a Na/K of 6.8. This compound returned an LD50 at 168 h in [3] greater than 2000 mg/kg. For the same compound, the “Decrease (%) in pepsin concentration” value in series [4] is reported as 99%. Also, in series [5], the “Decrease (%) in acidity of gastric juice” value is reported as 30%. The “Preventive effect on Shay rat ulcers” value in [6] (300 mg/kg oral) is on record as 100%. This compound gave an LD50 in [7] greater than 2000 mg/kg. In series [8], the Alcian blue binding was 284.7 ± 14.9 μg/g tissue and the “Increase (%) in alcian blue binding” value came out at 44%.

With `CC(C)c1cc2c(cc1S(=O)(=O)O)[C@@]1(C)CCC[C@@](C)(C(=O)O)[C@@H]1CC2` [Sulfodehydroabietic acid monosodium salt, 1,4a-dimethyl-1-carboxy-6-sulfo-7-isopropyl-1,2,3,4,4a,9,10,10a-octahydro-phenanthrene monosodium salt 5 hydrate], the Urine volume in series [9] (500 mg/kg oral) turned out to be 6.2 ± 0.5 mL; in series [9] (1000 mg/kg oral), 4.7 ± 0.4 mL. Also, the Na/K ratio worked out at 5.6 ± 0.5 in series [9] (500 mg/kg oral) and 5.9 ± 0.2 in series [9] (1000 mg/kg oral). Also, in series [9] (500 or 1000 mg/kg oral, rats, in words), the “change in urinary sodium-potassium ratio” value is reported as “no substantial change in urinary sodium-potassium ratio”. Besides, the “Preventive effect on aspirin-induced ulcers” value in [10] is 68%. Moreover, the figures for the Amount of tyrosine in series [1] (setting [12]) and in series [1] (setting [13]) were 1.61 ± 0.13 mg/g tissue and 0.95 ± 0.07 mg/g tissue, respectively. Further, the inhibition at 1000 µg/mL in [1] (Rattus norvegicus, 1 h, 1 mg/ml in artificial gastric juice, read-out: Inhibition (%) of digestion of mucous membrane) was found to be 33%. Also, the inhibition at 4000 µg/mL in series [1] (Rattus norvegicus, 1 h, 4 mg/ml in artificial gastric juice, read-out: Inhibition (%) of digestion of mucous membrane) stood at 61%. The “Decrease (%) in pepsin concentration” value in series [4] was found to be 96%. The “Decrease (%) in acidity of gastric juice” value in series [5] amounted to 43%. The “Preventive effect on Shay rat ulcers” value in series [6] (200 mg/kg oral, hydrate) worked out at 100%. Moreover, the LD50 at 168 h in series [11] is greater than 2000 mg/kg. The same compound showed an Alcian blue binding in [8] of 287.3 ± 34.2 μg/g tissue. For the same compound, the “Increase (%) in alcian blue binding” value in series [8] stood at 45%.

The LD50 is the dose at which mortality reaches 50%. Lower therefore signals a more toxic substance. As a reminder, the inhibition is the percentage by which the read-out fell short of the control.
